In patent publication US11318138B2, “Methods for treating B cell proliferative disorders” (priority 2013, dated 2022):

What was measured:
[1] = system: PIK3IP1 mRNA in JEKO-1 cells; test: q-RT-PCR analysis of PIK3IP1 mRNA expression in MCL cells; format: cell-based; conditions: JEKO-1, PD (30 h) alone or Ibrutinib (24 h) alone
recurrent MCL patients = conditions: cited from earlier work
[2] = system: PIK3IP1 mRNA in MAVER-1 cells; test: q-RT-PCR analysis of PIK3IP1 mRNA expression in MCL cells; format: cell-based; conditions: MAVER-1, PD (30 h) alone or Ibrutinib (24 h) alone
SP53 cells = conditions: SP53, Ibrutinib 72 h, at the G1-S transition
MAVER-1 cells = test: MCL cell line culture with Ibrutinib and/or PD 0332991: viability, cell cycle, apoptosis, live cells; format: cell-based; conditions: MAVER-1, Ibrutinib 72 h, Trypan blue exclusion and ToPro-3 FACS
MINO cells = test: as above; format: cell-based
JEKO-1 cells = test: as above; format: cell-based; conditions: JEKO-1, Ibrutinib 72 h, Trypan blue exclusion and ToPro-3 FACS
[3] = system: CCL3, CCL4, TNF and IL10 expression in MCL cells; conditions: MCL cells ex vivo; cited from earlier work
[4] = system: chicken lymphoma DL40 cell line; conditions: model chicken lymphoma DL40 cell line; cited from earlier work
MCL patient (Pt 7) = conditions: Pt 7, Ibrutinib 560 mg daily

SMILES	PIK3IP1 mRNA induction, single agent [1]	cell cycle effect in patients (recurrent MCL patients)	clinical response (recurrent MCL patients)	PIK3IP1 mRNA induction, single agent [2]	apoptosis (accumulation of sub 2N cells, reduction of S phase cells) (SP53 cells)	sensitivity of cells to ibrutinib (viability, DNA fragmentation) (MAVER-1 cells)	toxicity to cells (MINO cells; Ibrutinib 72 h)	S phase entry (BrdU pulsing/PI analysis) (MINO cells; Ibrutinib 72 h (1 μM))	sensitivity of cells to ibrutinib (viability, DNA fragmentation) (JEKO-1 cells)	expression of CCL3, CCL4, TNF and IL10 [3]	effect of C481S BTK mutation on ibrutinib sensitivity [4]	duration of response before progression (MCL patient (Pt 7)) [months]
CC(=O)c1c(C)c2cnc(Nc3ccc(N4CCNCC4)cn3)nc2n(C2CCCC2)c1=O [PD 0332991]	modestly induced	prolonged early G1 arrest	durable clinical response	modestly induced	–	–	–	–	–	–	–	–
C=CC(=O)N1CCC[C@@H](n2nc(-c3ccc(Oc4ccccc4)cc3)c3c(N)ncnc32)C1 [Ibrutinib, (R)-1-(3-(4-amino-3-(4-phenoxyphenyl)-1H-pyrazolo[3,4-d]pyrimidin-1-yl)piperidin-1-yl)prop-2-en-1-one]	modestly induced	–	–	modestly induced	potently induced apoptosis	completely refractory	not toxic	moderately inhibiting	completely refractory	suppress	conferred resistance	14
